# Results as given in patent US20190038597A1, “PREVENTION OF VASCULAR AND CARDIAC FIBROSIS VIA IRE1ALPHA INHIBITION” (McMaster University, priority 2017, published 2019).
# Tests used:
# Type in all cases: in vivo, rat
# [1] = tested on: SHR/L-NAME model of hypertension; test: Collagen content / fibrosis of vessels in L-NAME-treated SHRs; settings: 18 days
# Experimental: (§1) 12-14 week old male SHRs were randomized to receive vehicle, L-NAME (50 mg/L) or L-NAME and 4μ8c (2.5 mg/kg/day i.p.) for 18 days. Aortas and carotid arteries were removed at sacrifice for mechanical and structural analysis. (A) Picro-Sirius Red staining of aorta and carotid artery sections (B) Determination of soluble collagen content in aorta and carotid arteries by Picro-Sirius Red-based assay. Stress-strain curves (C,E), elastic modulus-stress lines (D,F) and the slope of the elastic modulus-stress lines (G,H) were calculated. Data is presented as mean±SEM. *, p<0.05 vs. NT; #, p<0.05 vs. L-NAME. N≥4 per group; 2-5 segments of the thoracic aorta were analyzed per animal. In C to F, lines of best fit are bound by 95% confidence intervals (dotted lines). *, p<0.05.
# 12-14 week old male SHRs were used to determine the effect of pharmacological IRE1α inhibition on L-NAME-induced vascular stiffening. They were maintained on a 12-hour light-dark cycle with rat chow and water ad libitium. Animals were implanted with radio-telemetry devices (Data Science International, St. Paul, Minn., USA) one week before the start of the study. […]
# The wet weight of aortic tissues was determined. […]
# (§2) Tissues were fixed in 4% paraformaldehyde and subsequently embedded in paraffin. […] Collagen area density was calculated by dividing the PSR-stained area by the total area of the vessel.
# [2] = tested on: SHR/L-NAME model of hypertension; test: Vascular stiffness by wire myograph in L-NAME-treated SHRs; settings: L-NAME+4μ8c group, 18 days, maximally relaxed vessels
# Experimental: as §1, with “In C to F, lines of best fit are bound by 95% confidence intervals (dotted lines). *, p<0.05.” left out
# Vessels were mounted on a steel wire myograph and incubated in Ca^2±-free Hank's Basic Salt Solution containing 100 μM sodium nitroprusside to ensure maximum relaxation. […] Images of the vessels at each incremental tension were captured and lumen diameters were measured with ImageJ software. Circumferential stress (a) was calculated as F/tl, where F is the tension in the vessel wall, t is the radial thickness of the vessel wall and 1 is the axial length of the aortic ring. Circumferential strain (c) was calculated as (D−D0)/D0 where D is the lumen diameter at a given tension and D0 is the initial diameter under maximally relaxed conditions. […]
# [3] = tested on: SHR/L-NAME model of hypertension; test: Cardiac hypertrophy and fibrosis in L-NAME-treated SHRs
# Experimental: 12-14 week old male SHRs were randomized to receive vehicle, L-NAME (50 mg/L) or L-NAME and 4μ8c (2.5 mg/kg/day i.p.) for 18 days. (A) Cardiac hypertrophy measured using heart weight to body ratio. (B) Quantification of Picro-Sirius Red-stained area in heart tissue. (C) Picro-Sirius Red staining of transverse heart sections. Bar: 4×, 500 μm; 20×, 200 μm. Data is presented as mean±SEM. *, p<0.05 vs. NT. #, p<0.05 vs L-NAME.
# 12-14 week old male SHRs were used to determine the effect of pharmacological IRE1α inhibition on L-NAME-induced vascular stiffening. They were maintained on a 12-hour light-dark cycle with rat chow and water ad libitium. Animals were implanted with radio-telemetry devices (Data Science International, St. Paul, Minn., USA) one week before the start of the study. Animals were randomized into one of three groups (n=6 per group): 1) No treatment, 2) L-NAME (50 mg/L in drinking water, Sigma-Aldrich), or 3) L-NAME+4μ8c (2.5 mg/kg/day i.p., Millipore). 4μ8c was administered in a vehicle of 10% DMSO, 10% Tween-80 and 80% normal saline. Animals in Group 2 received daily injections of the vehicle. All animals were fed a normal chow diet. […]
# as §2
structure (smiles),measurement,setting,value
"Cc1cc(=O)oc2c(C=O)c(O)ccc12 [4μ8c, 7-Hydroxy-4-methyl-2-oxo-2H-chromene-8-carbaldehyde]",Collagen content in homogenized aortic tissue,"[1]; L-NAME+4μ8c group, PSR-based colorimetric assay",47.10±2.88 μg/mg tissue
same,fibrosis and vascular stiffness in the hypertensive animals,"[1]; SHR/L-NAME, 4μ8c 2.5 mg/kg/day i.p.",reduced
same,"slope of the elastic modulus-stress line, carotid artery",[2],14.42±0.59
same,"slope of the incremental elastic modulus versus stress line, aorta",[2],3.970±0.129
same,fibrosis in the left and right ventricles by PSR staining,"[3]; 4μ8c-treated animals vs L-NAME group, FIGS. 7B and 7C",significantly reduced
same,cardiac hypertrophy (heart weight to body weight ratio),"[3]; L-NAME+4μ8c group, 18 days, FIG. 7A",4.293±0.438 mg HW/g BW
